Tested on: Anthonomus grandis (Cotton Boll Weevil)
Test: Anthonomus grandis (Cotton Boll Weevil) test on treated cotton plants, mortality
Type: in vivo
Method: Anthonomus grandis (Cotton Boll Weevil)
Cotton plants are treated (100 mL spray volume) and 10 adult weevils are added to each plant (2 replicates per concentration). 5 days after infestation the mortality is assessed.
Compounds are tested according to the above method.

[1] = application rate 0.2 ppm, treated cotton plants, 10 adult weevils per plant, mortality 5 days after infestation
[2] = application rate 0.8 ppm, treated cotton plants, 10 adult weevils per plant, mortality 5 days after infestation
[3] = application rate 3 ppm, treated cotton plants, 10 adult weevils per plant, mortality 5 days after infestation
[4] = application rate 12.5 ppm, treated cotton plants, 10 adult weevils per plant, mortality 5 days after infestation
[5] = application rate 50 ppm, treated cotton plants, 10 adult weevils per plant, mortality 5 days after infestation
[6] = application rate 0.01 ppm, treated cotton plants, 10 adult weevils per plant, mortality 5 days after infestation
[7] = application rate 0.05 ppm, treated cotton plants, 10 adult weevils per plant, mortality 5 days after infestation
[8] = comparative example, application rate 0.8 ppm, Anthonomus grandis (Cotton boll weevil)
[9] = comparative example, application rate 3 ppm, Anthonomus grandis (Cotton boll weevil)
[10] = comparative example, application rate 12.5 ppm, Anthonomus grandis (Cotton boll weevil)

| SMILES | Control/% [1] [%] | Control/% [2] [%] | Control/% [3] [%] | Control/% [4] [%] | Control/% [5] [%] | Control/% [6] [%] | Control/% [7] [%] | Control/% [8] [%] | Control/% [9] [%] | Control/% [10] [%] |
| --- | --- | --- | --- | --- | --- | --- | --- | --- | --- | --- |
| CCN1OC[C@@H](NC(=O)c2ccc(C3=NO[C@@](c4cc(Cl)c(F)c(Cl)c4)(C(F)(F)F)C3)cc2Cl)C1=O [Compound A19] | 60 | 30 | 85 | 95 | 100 |  |  |  |  |  |
| CCN1OC[C@@H](NC(=O)c2ccc(C3=NO[C@@](c4cc(Cl)c(F)c(Cl)c4)(C(F)(F)F)C3)cc2C)C1=O [Compound A20] | 15 | 60 | 100 | 100 | 100 |  |  |  |  |  |
| Cc1cc(C2=NO[C@@](c3cc(Cl)cc(Cl)c3)(C(F)(F)F)C2)ccc1C(=O)N[C@H]1CON(CC(F)(F)F)C1=O [Compound A3] | 60 | 60 | 100 | 100 | 100 |  |  |  |  |  |
| Cc1cc(C2=NOC(c3cc(Cl)cc(Cl)c3)(C(F)(F)F)C2)ccc1C(=O)NC1CON(C)C1=O (mixture of isomers) [Compound A2] | 45 | 80 | 100 | 100 | 100 |  |  |  |  |  |
| Cc1cc(C2=NOC(c3cc(Cl)cc(Cl)c3)(C(F)(F)F)C2)ccc1C(=O)NC1CON(CC(F)(F)F)C1=O (mixture of isomers) [Compound A21] | 70 |  |  | 100 | 100 |  |  |  |  |  |
| CCN1OC[C@@H](NC(=O)c2ccc(C3=NO[C@@](c4cc(Cl)cc(Cl)c4)(C(F)(F)F)C3)cc2C)C1=O [Compound A17] | 20 | 50 | 100 | 100 | 100 |  |  |  |  |  |
| CCN1OC[C@@H](NC(=O)c2ccc(C3=NO[C@@](c4cc(Cl)cc(C(F)(F)F)c4)(C(F)(F)F)C3)c3ccccc23)C1=O [Compound A18] | 0 | 40 | 30 | 35 | 100 |  |  |  |  |  |
| Cc1cc(C2=NOC(c3cc(Cl)cc(Cl)c3)(C(F)(F)F)C2)ccc1C(=O)NC1CON(CC(F)F)C1=O (mixture of isomers) [Compound A6] | 95 | 100 | 100 |  |  | 35 | 50 |  |  |  |
| Cc1cc(C2=NOC(c3cc(Cl)cc(Cl)c3)(C(F)(F)F)C2)ccc1C(=O)N[C@@H]1CON(Cc2ccccc2)C1=O (stereo partly drawn) [Reference compound, reference compound] |  |  |  |  |  |  |  | 10 | 30 | 30 |
| Cc1cc(C2=NOC(c3cc(Cl)c(Cl)c(Cl)c3)(C(F)(F)F)C2)ccc1C(=O)NC1CON(CC(F)(F)F)C1=O (mixture of isomers) [Compound A1] | 45 | 90 | 100 | 100 | 95 |  |  |  |  |  |
| Cc1cc(C2=NOC(c3cc(Cl)cc(Cl)c3)(C(F)(F)F)C2)ccc1C(=O)NC1CON(CC(F)(F)F)C1=O (mixture of isomers) [Compound A8] | 70 | 100 | 100 |  |  | 20 | 35 |  |  |  |
| Cc1cc(C2=NOC(c3cc(Cl)cc(Cl)c3)(C(F)(F)F)C2)ccc1C(=O)N[C@@H]1CON(CC(F)(F)F)C1=O (stereo partly drawn) [Compound of the invention] |  |  |  |  |  |  |  | 100 | 100 | 100 |
| CCN1OCC(NC(=O)c2ccc(C3=NOC(c4cc(Cl)cc(Cl)c4)(C(F)(F)F)C3)cc2C)C1=O (mixture of isomers) [Compound A9] | 25 | 15 | 75 | 100 | 100 |  |  |  |  |  |
| Cc1cc(C2=NO[C@@](c3cc(Cl)cc(Cl)c3)(C(F)(F)F)C2)ccc1C(=O)N[C@@H]1CON(CC(F)(F)F)C1=O [Compound A16] | 100 | 100 | 100 |  |  | 0 | 55 |  |  |  |
| CCN1OCC(NC(=O)c2ccc(C3=NOC(c4cc(Cl)c(F)c(Cl)c4)(C(F)(F)F)C3)cc2C)C1=O (mixture of isomers) [Compound A5] | 40 | 40 | 95 | 100 | 100 |  |  |  |  |  |

Reference: US9320278B2, “Methods of controlling insects” (Syngenta Participations AG, priority 2012, dated 2016)
